Literature values, collected in US20070243232A1, “Method to treat and prevent asthma attacks using throat lozenges and orally-retained liquids containing magnesium” (priority 2006, published 2007).

Conditions: injections in the 200 mg range

SMILES: O=S(=O)([O-])[O-].[Mg+2] [magnesium sulfate]
- efficacy in treating asthma and effecting a rescue: modestly effective
